Here are results for 16 compounds from patent publication US9382254B2, “Compounds and pharmaceutical compositions thereof for the treatment of cystic fibrosis” (Galapagos NV, priority 2013, dated 2016).

Holding throughout (assay type): cell-based
One experiment has as its target T1, CFTR ΔF508 mutant (Homo sapiens, UniProt P13569, DEL508-508).
T1 construct: expressed in transfected cells; host or cells: CFBE41o- (adenoviral transduction)
As to the kind of experiment: YFP-halide influx assay for the CFTR-ΔF508 mutation (384 well, FDSS/μCell). Particulars: CFBE41o- cells, CFTR-ΔF508, 1×D-PBS, fluorescence after 36 seconds. In a few lines: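 Potentiator read-out as 1−F/F0, F taken 36 s after iodide addition, EC50 fitted against compound concentration. Cells: CFBE41o- expressing ΔF508 CFTR plus halide-sensitive YFP via adenovirus, rescued by 27 °C for 24 h or 24 h modulator at 37 °C.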

For the next experiment, the target named is T2, CFTR G551D mutant (Homo sapiens, UniProt P13569, G551D).
T2 construct: expressed in transfected cells; host or cells: HEK293 (reverse transfection with plasmid)
T2 sequence (P13569 whole entry G551D): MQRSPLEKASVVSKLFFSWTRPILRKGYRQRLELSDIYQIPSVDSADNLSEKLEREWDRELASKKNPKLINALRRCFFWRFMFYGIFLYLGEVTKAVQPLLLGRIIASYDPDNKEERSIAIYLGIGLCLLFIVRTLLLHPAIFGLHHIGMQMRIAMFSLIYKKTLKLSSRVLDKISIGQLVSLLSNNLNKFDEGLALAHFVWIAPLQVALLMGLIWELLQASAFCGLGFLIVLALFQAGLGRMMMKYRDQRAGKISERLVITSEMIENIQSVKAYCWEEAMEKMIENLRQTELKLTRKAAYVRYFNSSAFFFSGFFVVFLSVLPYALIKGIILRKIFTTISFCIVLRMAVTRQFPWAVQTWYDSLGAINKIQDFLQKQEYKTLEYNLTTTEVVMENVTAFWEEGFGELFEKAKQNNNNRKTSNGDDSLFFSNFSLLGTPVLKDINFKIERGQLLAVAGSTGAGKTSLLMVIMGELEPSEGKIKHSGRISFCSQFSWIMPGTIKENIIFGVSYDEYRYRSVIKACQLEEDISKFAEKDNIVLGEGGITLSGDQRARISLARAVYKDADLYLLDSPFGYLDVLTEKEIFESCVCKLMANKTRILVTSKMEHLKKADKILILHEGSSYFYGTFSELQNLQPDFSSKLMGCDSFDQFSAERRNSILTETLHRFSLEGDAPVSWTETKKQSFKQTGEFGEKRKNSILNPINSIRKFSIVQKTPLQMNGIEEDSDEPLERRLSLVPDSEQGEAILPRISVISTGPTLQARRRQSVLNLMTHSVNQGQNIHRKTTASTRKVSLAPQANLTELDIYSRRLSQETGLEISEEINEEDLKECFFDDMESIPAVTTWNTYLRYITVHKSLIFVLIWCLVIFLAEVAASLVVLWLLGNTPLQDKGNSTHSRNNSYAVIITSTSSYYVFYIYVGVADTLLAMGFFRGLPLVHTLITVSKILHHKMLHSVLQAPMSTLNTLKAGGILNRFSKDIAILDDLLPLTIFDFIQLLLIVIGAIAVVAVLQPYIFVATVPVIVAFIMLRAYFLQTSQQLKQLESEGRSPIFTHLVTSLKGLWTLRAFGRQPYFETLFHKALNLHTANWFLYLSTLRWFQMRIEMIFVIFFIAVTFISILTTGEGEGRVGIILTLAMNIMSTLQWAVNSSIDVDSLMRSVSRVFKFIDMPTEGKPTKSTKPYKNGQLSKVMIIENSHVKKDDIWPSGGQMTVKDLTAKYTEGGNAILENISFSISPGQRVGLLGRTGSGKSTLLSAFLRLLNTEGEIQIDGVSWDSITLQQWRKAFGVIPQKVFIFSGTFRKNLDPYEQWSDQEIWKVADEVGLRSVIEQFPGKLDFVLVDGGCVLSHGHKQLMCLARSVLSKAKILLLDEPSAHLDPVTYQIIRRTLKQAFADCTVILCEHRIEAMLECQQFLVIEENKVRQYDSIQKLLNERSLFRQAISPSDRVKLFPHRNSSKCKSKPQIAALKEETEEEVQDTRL
In words: YFP-halide influx assay for the CFTR-G551D mutation. Particulars: HEK293 cells, forskolin 10.67 μM. In a few lines:
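HEK293 cells reverse-transfected with CFTR G551D and YFP H148Q/I152L/F47L halide sensor, expressed 24 h at 37 °C. Iodide-induced fluorescence quench recorded 7 s after I− injection; response = 1−F/F0, with EC50 from plot against compound concentration.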

The target of another experiment is T3, CFTR-G178R (Homo sapiens, UniProt P13569, G178R).
T3 construct: expressed in transfected cells
T3 sequence (P13569 whole entry G178R): as the sequence (P13569 whole entry G551D) above, with G178R, D551G counted along it
In words: YFP-halide influx assay for the CFTR-G178R. From the text: (§1) The YFP halide influx assay measures the functionality of the cystic fibrosis Transmembrane Conductance regulator (CFTR) channels. The assay is used to evaluate the capacity of compounds to increase the channel opening of existing mutant CFTR channels in the membrane. It makes use of the observation that the yellow fluorescent protein (YFP) variant YFP H148Q, I152L, […] has its fluorescence substantially quenched by halide ions like Cl^− and I^−. (Galietta, Haggie, & Verkman, 2001)
(§2) For this purpose, HEK293-cells are seeded in 96 well plates. During seeding, the cells are reverse-transfected with plasmid vectors that direct the expression of the CFTR G551D mutant and of the YFP reporter. Cells are incubated at 37° C., 5% CO2 for 24 hours so as to allow for sufficient expression of the CFTR protein.
(§3) The I^−-induced quenching of fluorescence is recorded immediately after injection of I^− for 7 seconds. The capacity of a compound to increase the channel opening is directly correlated with the decrease in fluorescence, and is expressed as (1-(fluorescence after 7 seconds (F)/fluorescence before injection (F0))) and an EC50 can be derived from a (1-F/F0) vs compound concentration plot.
(§4) Similar YHA assays were developed for other channel gating defective or channel conductance defective CFTR mutants to determine effect of compound on channel activity. Examples of mutants are G178R, G1349D, S549N, R117H, R334W. This assay is also used for additional class I CFTR mutants, including G542X, W1282X; class II mutants including N1303K, and for class III mutants including S1251N.

The target of another experiment is T4, CFTR-G1349D (Homo sapiens, UniProt P13569, G1349D).
T4 construct: expressed in transfected cells
T4 sequence (P13569 whole entry G1349D): as the sequence (P13569 whole entry G551D) above, with D551G, G1349D counted along it
As to the kind of experiment: YFP-halide influx assay for the CFTR-G1349D.
From the text: as §1, §2, §3, §4

A further experiment deals with T5, CFTR-S549N (Homo sapiens, UniProt P13569, S549N).
T5 construct: expressed in transfected cells
T5 sequence (P13569 whole entry S549N): as the sequence (P13569 whole entry G551D) above, with S549N, D551G counted along it
As to the kind of experiment: YFP-halide influx assay for the CFTR-S549N.
From the text: as §1, §2, §3, §4

The target in a further experiment is T6, CFTR-R117H (Homo sapiens, UniProt P13569, R117H).
T6 construct: expressed in transfected cells
T6 sequence (P13569 whole entry R117H): as the sequence (P13569 whole entry G551D) above, with R117H, D551G counted along it
In words: YFP-halide influx assay for the CFTR-R117H.
From the text: as §1, §2, §3, §4

T1 sequence (P13569 with tags, fused parts or gaps DEL508-508): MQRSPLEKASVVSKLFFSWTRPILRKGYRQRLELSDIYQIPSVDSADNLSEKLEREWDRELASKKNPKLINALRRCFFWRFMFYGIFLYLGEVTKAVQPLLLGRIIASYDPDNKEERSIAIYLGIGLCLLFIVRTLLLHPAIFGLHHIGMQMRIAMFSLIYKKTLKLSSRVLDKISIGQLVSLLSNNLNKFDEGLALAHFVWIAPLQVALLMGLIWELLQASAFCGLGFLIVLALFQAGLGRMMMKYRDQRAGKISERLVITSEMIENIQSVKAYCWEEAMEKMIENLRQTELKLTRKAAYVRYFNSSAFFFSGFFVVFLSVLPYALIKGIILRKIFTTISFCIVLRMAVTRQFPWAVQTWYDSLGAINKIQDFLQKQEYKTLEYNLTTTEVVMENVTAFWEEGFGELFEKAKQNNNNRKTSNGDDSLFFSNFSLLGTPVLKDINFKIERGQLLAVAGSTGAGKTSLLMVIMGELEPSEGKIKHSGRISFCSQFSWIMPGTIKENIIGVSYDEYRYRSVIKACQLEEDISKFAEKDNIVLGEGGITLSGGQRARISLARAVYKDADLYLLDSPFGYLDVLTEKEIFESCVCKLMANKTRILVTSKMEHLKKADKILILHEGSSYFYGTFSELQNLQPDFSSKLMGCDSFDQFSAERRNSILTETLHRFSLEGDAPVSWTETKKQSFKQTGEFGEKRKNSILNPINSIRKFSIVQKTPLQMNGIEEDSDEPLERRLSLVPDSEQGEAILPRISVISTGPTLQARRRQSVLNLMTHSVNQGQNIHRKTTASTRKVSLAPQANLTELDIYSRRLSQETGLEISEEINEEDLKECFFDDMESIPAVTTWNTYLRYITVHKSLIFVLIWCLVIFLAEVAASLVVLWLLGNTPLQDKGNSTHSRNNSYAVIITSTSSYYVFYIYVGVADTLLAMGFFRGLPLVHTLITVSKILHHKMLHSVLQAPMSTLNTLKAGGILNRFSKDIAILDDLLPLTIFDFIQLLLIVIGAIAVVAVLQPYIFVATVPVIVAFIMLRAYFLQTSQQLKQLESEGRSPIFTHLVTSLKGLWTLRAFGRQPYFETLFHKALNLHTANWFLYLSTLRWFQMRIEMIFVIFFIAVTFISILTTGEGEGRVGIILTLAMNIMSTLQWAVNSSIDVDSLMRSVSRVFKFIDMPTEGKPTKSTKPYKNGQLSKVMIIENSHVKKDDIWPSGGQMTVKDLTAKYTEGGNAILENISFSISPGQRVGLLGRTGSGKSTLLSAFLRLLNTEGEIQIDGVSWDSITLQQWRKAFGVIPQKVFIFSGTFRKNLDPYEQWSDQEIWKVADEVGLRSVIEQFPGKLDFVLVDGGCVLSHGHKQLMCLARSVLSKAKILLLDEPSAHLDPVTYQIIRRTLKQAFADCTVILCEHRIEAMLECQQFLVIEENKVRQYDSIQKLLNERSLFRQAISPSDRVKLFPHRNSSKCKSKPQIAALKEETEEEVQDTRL

Broadly, the EC50 is the concentration that produces a half-maximal response. Read a high EC50 as a need for much substance. On to `CC(C)(O)C(=O)Nc1sc(S(=O)(=O)c2ccc(C(C)(C)C)cn2)cc1C(N)=O` [Compound 433, 5-[(5-tert-butyl-2-pyridyl)sulfonyl]-2-[(2-hdyroxy-2-methyl-propanoyl)amino] thiophene-3-carboxamide], for which the EC50 at CFTR ΔF508 mutant amounted to 48.8 nM; on CFTR G551D mutant it was 1300 nM; on CFTR-G178R, 217 nM; at CFTR-G1349D it was 3330 nM; on CFTR-S549N it was 405 nM; at CFTR-R117H, 676 nM.
For `NC(=O)c1cc(S(=O)(=O)c2ccccc2OC(F)(F)F)sc1NC(=O)C1(CO)CC1` [Compound 320, 2-[(1-Hydroxymethyl-cyclopropanecarbonyl)-amino]-5-(2-trifluoromethoxy-benzenesulfonyl)-thiophene-3-carboxylic acid amide], the EC50 at CFTR ΔF508 mutant turned out to be 12.9 nM; on CFTR G551D mutant it was 97.3 nM; at CFTR-G178R, 56.2 nM; on CFTR-G1349D, 31.6 nM; at CFTR-S549N, 131 nM; at CFTR-R117H, 87.7 nM.
With `CC(C)(O)C(=O)Nc1sc(S(=O)(=O)c2ccc(C(F)(F)F)c(Cl)n2)cc1C(N)=O` [Compound 423, 5-[[6-chloro-5-(trifluoromethyl)-2-pyridyl]sulfonyl]-2-[(2-hydroxy-2-methyl-propanoyl)amino] thiophene-3-carboxamide], the EC50 on CFTR ΔF508 mutant amounted to 10.9 nM; on CFTR G551D mutant, 842 nM; on CFTR-G178R, 162 nM; on CFTR-G1349D, 1110 nM; at CFTR-S549N, 1910 nM; on CFTR-R117H, 249 nM.
As to `CC(C)(O)C(=O)Nc1sc(S(=O)(=O)c2ccc(OC(F)(F)F)c(F)c2)cc1C(N)=O` [Compound 377, 5-[3-fluoro-4-(trifluoromethoxy)phenyl] sulfonyl-2-[(2-hydroxy-2-methyl-propanoyl)amino] thiophene-3-carboxamide], the EC50 at CFTR ΔF508 mutant is 40.5 nM; on CFTR G551D mutant, 711 nM; at CFTR-G178R, 241 nM; at CFTR-G1349D it was 135 nM; on CFTR-S549N it was 935 nM; on CFTR-R117H it was 779 nM.
In the case of `CC(C)(O)C(=O)Nc1sc(S(=O)(=O)c2cnc(C(F)(F)F)cn2)cc1C(N)=O` [Compound 397, 2-[(2-hydroxy-2-methyl-propanoyl)amino]-5-[5-(trifluoromethyl)pyrazin-2-yl]sulfonyl-thiophene-3-carboxamide], the EC50 on CFTR ΔF508 mutant came to 30.7 nM; on CFTR G551D mutant it was 1790 nM; at CFTR-G178R, 417 nM; at CFTR-G1349D, 413 nM; at CFTR-S549N it was 678 nM; at CFTR-R117H it was 259 nM.
For the compound `CC(C)(O)C(=O)Nc1sc(S(=O)(=O)c2cc(Cl)ncc2C#N)cc1C(N)=O` [Compound 432, 5-[(2-chloro-5-cyano-4-pyridyl)sulfonyl]-2-[(2-hydroxy-2-methyl-propanoyl)amino] thiophene-3-carboxamide], the EC50 at CFTR ΔF508 mutant turned out to be 47.9 nM; on CFTR G551D mutant, 5550 nM; on CFTR-G178R, 1110 nM; at CFTR-G1349D it was 3330 nM; on CFTR-S549N, 1480 nM; on CFTR-R117H, 359 nM.
In the case of `C[C@@H](CO)C(=O)Nc1sc(S(=O)(=O)c2ccc(OC(F)(F)F)cc2)cc1C(N)=O` [Compound 379, 2-[[(2S)-3-hydroxy-2-methyl-propanoyl]amino]-5-[4-(trifluoromethoxy)phenyl] sulfonyl-thiophene-3-carboxamide], the EC50 on CFTR ΔF508 mutant is 16.7 nM; at CFTR G551D mutant, 655 nM; at CFTR-G178R, 75.8 nM; at CFTR-G1349D it was 58.6 nM; on CFTR-S549N it was 155 nM; at CFTR-R117H it was 96.7 nM.
As to `CC(C)(O)C(=O)Nc1sc(S(=O)(=O)c2ccc(C#N)cc2OC(F)(F)F)cc1C(N)=O` [Compound 393, 5-[4-cyano-2-(trifluoromethoxy)phenyl] sulfonyl-2-[(2-hydroxy-2-methyl-propanoyl)amino] thiophene-3-carboxamide], the EC50 at CFTR ΔF508 mutant came out at 14.8 nM; at CFTR G551D mutant, 662 nM; at CFTR-G178R it was 56.7 nM; on CFTR-G1349D it was 159 nM; on CFTR-S549N, 256 nM; on CFTR-R117H, 47.6 nM.
With `CC(C)(O)C(=O)Nc1sc(S(=O)(=O)c2cc(Cl)ccc2OC(F)(F)F)cc1C(N)=O` [Compound 391, 5-[5-chloro-2-(trifluoromethoxy)phenyl] sulfonyl-2-[(2-hydroxy-2-methyl-propanoyl)amino] thiophene-3-carboxamide], the EC50 at CFTR ΔF508 mutant is 14.9 nM; at CFTR G551D mutant, 53.2 nM; on CFTR-G178R it was 12.9 nM; at CFTR-G1349D, 25.9 nM; at CFTR-S549N, 42.1 nM; at CFTR-R117H, 33.8 nM.
As for `Cc1ccc(C(F)(F)F)c(S(=O)(=O)c2cc(C(N)=O)c(NC(=O)C(C)(C)O)s2)n1` [Compound 413, 2-[(2-hydroxy-2-methyl-propanoyl)amino]-5-[[6-methyl-3-(trifluoromethyl)-2-pyridyl]sulfonyl] thiophene-3-carboxamide], the EC50 on CFTR ΔF508 mutant was determined as 12.8 nM; on CFTR G551D mutant, 1480 nM; at CFTR-G178R it was 44.7 nM; on CFTR-G1349D it was 134 nM; at CFTR-S549N, 64.7 nM; on CFTR-R117H, 71.1 nM.
In the case of `CC(CO)C(=O)Nc1sc(S(=O)(=O)c2ccc(Cl)cc2OC(F)(F)F)cc1C(N)=O` (stereo not drawn) [Compound 387, 5-[4-chloro-2-(trifluoromethoxy)phenyl] sulfonyl-2-[(3-hydroxy-2-methyl-propanoyl)amino] thiophene-3-carboxamide], the EC50 is 22.3 nM at CFTR ΔF508 mutant; 1410 nM on CFTR G551D mutant; 87.6 nM on CFTR-G178R; 83.6 nM at CFTR-G1349D; 210 nM on CFTR-S549N; 49.5 nM at CFTR-R117H.
As for `CC(C)(O)C(=O)Nc1sc(S(=O)(=O)c2cc(C(F)(F)F)ncc2Cl)cc1C(N)=O` [Compound 390, 5-[[5-chloro-2-(trifluoromethyl)-4-pyridyl]sulfonyl]-2-[(2-hydroxy-2-methyl-propanoyl)amino] thiophene-3-carboxamide], the EC50 came to 44.1 nM at CFTR ΔF508 mutant; 668 nM at CFTR G551D mutant; 103 nM at CFTR-G178R; 293 nM on CFTR-G1349D; 322 nM at CFTR-S549N; 221 nM on CFTR-R117H.
With `CC(CO)C(=O)Nc1sc(S(=O)(=O)c2ccc(C(F)(F)F)cc2)cc1C(N)=O` (stereo not drawn) [Compound 369, 2-[(3-hydroxy-2-methyl-propanoyl)amino]-5-[4-(trifluoromethyl)phenyl] sulfonyl-thiophene-3-carboxamide], the concentration giving a half-maximal response (EC50) on CFTR ΔF508 mutant is 11.6 nM; on CFTR G551D mutant it was 691 nM; at CFTR-G178R, 74.6 nM; at CFTR-G1349D, 195 nM; at CFTR-S549N, 445 nM; at CFTR-R117H, 142 nM.
Regarding `CC(O)C(=O)Nc1sc(S(=O)(=O)c2ccc(C(F)(F)F)cc2F)cc1C(N)=O` (stereo not drawn) [Compound 368, 5-[2-fluoro-4-(trifluoromethyl)phenyl]sulfonyl-2-(2-hydroxypropanoylamino) thiophene-3-carboxamide], the EC50 at CFTR ΔF508 mutant stood at 17.3 nM; at CFTR G551D mutant it was 321 nM; on CFTR-G178R, 32.7 nM; on CFTR-G1349D, 100 nM; at CFTR-S549N, 55.5 nM; at CFTR-R117H, 33.7 nM.
On to `CC(O)C(=O)Nc1sc(S(=O)(=O)c2cc(F)ccc2Cl)cc1C(N)=O` (stereo not drawn) [Compound 333, 5-(2-chloro-5-fluoro-phenyl)sulfonyl-2-(2-hydroxypropanoylamino) thiophene-3-carboxamide], for which the EC50 at CFTR ΔF508 mutant is 12.6 nM; at CFTR G551D mutant, 754 nM; on CFTR-G178R it was 620 nM; on CFTR-G1349D, 847 nM; at CFTR-S549N, 547 nM; at CFTR-R117H, 467 nM.
As for `Cc1cc(C(F)(F)F)cc(S(=O)(=O)c2cc(C(N)=O)c(NC(=O)C(C)(C)O)s2)c1` [Compound 430, 2-[(2-hydroxy-2-methyl-propanoyl)amino]-5-[3-methyl-5-(trifluoromethyl)phenyl] sulfonyl-thiophene-3-carboxamide], the EC50 on CFTR ΔF508 mutant was 10.7 nM; at CFTR G551D mutant, 1500 nM; at CFTR-G178R, 283 nM; on CFTR-G1349D, 3330 nM; on CFTR-S549N, 702 nM; at CFTR-R117H, 321 nM.
